Measurements published in patent publication US8546611B2 (priority 2008, dated 2013).
Like-named read-outs stand apart in the source and are kept apart here.

Experiments:
[1] = system: erythroid cells isolated from the bone marrow of laboratory mice males; conditions: feed with succinic acid 20 mg/kg body wt., not irradiated
Protocol: The test for genotoxicity was performed on young laboratory mice males (18-20 g; 6 animals in each group). […] The control animals were given water.

Wistar rat males = conditions: for Eosinophils, 6 h after / Lymphocytes, 6 h after / Number of leukocytes in 1 μl of blood, 6 h after / Segmentated cells, 6 h after: 6 h after immobilization; for Eosinophils, 6 h after / Lymphocytes, 6 h after / Number of leukocytes in 1 μl of blood, 6 h after / Segmentated cells, 6 h after / Eosinophils, before / Lymphocytes, before / Number of leukocytes in 1 μl of blood, before / Segmentated cells, before: 1.5 ml of 1% succinic acid perorally 10 min prior; for Eosinophils, before / Lymphocytes, before / Number of leukocytes in 1 μl of blood, before / Segmentated cells, before: at the moment of immobilization
Protocol: Examples, illustrating the method invented, are presented below. […] SA is tested on rats endured an immobilization stress; the parameter tested is lymphocytic composition of blood, which is determined before and after stress in a blood smear taken from the caudal vein. […] A detailed description of the testing technique is given in Example 13.
The animals were fixed while lying flat on their back, with their legs secured. […] Blood was taken from the caudal vein: 10 μl for counting blood corpuscles and 20 μl for preparing a smear with its subsequent staining by Romanovsky-Giemsa).
First group: 10 min prior immobilization, the animals were injected (perorally, with the help of a stomach pump) with 1.5 ml of 1% starch solution. […] Blood was taken from the caudal vein at the moment of immobilization and 6 hours later, and stained blood smears were prepared to calculate the leukogram.

[2] = system: patients with cardiac insufficiency; conditions: for patients of functional class I, day 30 / patients of functional class II, day 30 / patients of functional class III, day 30 / patients of functional class IV, day 30 / patients of functional class I, day 60 / patients of functional class II, day 60 / patients of functional class III, day 60 / patients of functional class IV, day 60 / patients of functional class I, day 90 / patients of functional class II, day 90 / patients of functional class III, day 90 / patients of functional class IV, day 90: 100 mg twice per day with standard therapy; for patients of functional class I, day 30 / patients of functional class II, day 30 / patients of functional class III, day 30 / patients of functional class IV, day 30: after 30 days; for patients of functional class I, day 60 / patients of functional class II, day 60 / patients of functional class III, day 60 / patients of functional class IV, day 60: after 60 days; for patients of functional class I, day 90 / patients of functional class II, day 90 / patients of functional class III, day 90 / patients of functional class IV, day 90: after 90 days; for patients of functional class I, day 0 / patients of functional class II, day 0 / patients of functional class III, day 0 / patients of functional class IV, day 0: with standard therapy, before treatment
Protocol: The test for cardiotonic activity of product samples was performed by measuring the dynamics of alteration of the functional class of cardiac failure. The functional class can be determined quite accurately by analyzing the everyday life activities according to a specific activity scale. The authors of this technique suppose that the criteria developed by NYHA (New York Heart Association) cannot provide accurate determination of functional class, since widely used terms, such as “everyday physical activity”, “sub-everyday activity” are not specific. On the basis of multiple tests, in which patients exercised on a treadmill, the authors calculated a scale of metabolic expenses for each kind of life activity (see Goldman L., Hashimoto B., Cook F. et al., Comparative reproducibility and validity of systems for assessing cardiovascular functional class: advantages of a new specific activity scale (1981) Circulation 64 (6):1227-34). This inquiry is designed to be used by medical personnel, interviewing a patient. After calculating the sum of possible energy expenses, the functional class of the patient is determined according to the summary criteria of the specific activity scale (Table 6).
In the tests, the patient groups were formed so that the people of the same functional class were equally distributed among different groups. Severe patients (of IV functional class; those having oncological diseases or suffered myocardial infarction/stroke to the brain 60 days or less before) were not admitted to the tests. The distribution of patients among groups was governed by a random number generator. The tests were carried out by the following protocol. Each patient took 100 mg of the preparation twice per day (in the morning and after lunch) during 3 months—against the background of a standard therapy administered by a physician. […] All the samples and placebo were encoded before sending into the clinic, so none of those involved into the tests (patients, physicians, medical personnel and the manager of tests) was aware of the nature of samples.
The functional class of patients was determined several times: at the beginning of tests (before the formation of test groups) and after 30, 60 and 90 days of treatment with the test samples. The estimation was performed on the basis of the activity scale (Table 7).

white rat females = conditions: female, in vivo, 5000 mg/kg; for Total died: 14 days
[3] = system: erythroid cells isolated from the bone marrow of gamma-irradiated laboratory mice males; assay: Radioprotective properties (micronucleus test after gamma irradiation); conditions: for Number of micronuclei per 2000 cells (radioprotective properties): mice irradiated with gamma rays 1.3 Gy, then fed 48 h succinic acid 20 mg/kg body wt., critical value 16±2

O=C(O)CCC(=O)O [Example 7, succinic acid]
Number of micronuclei per 2000 cells (genotoxicity) ([1]; norm 5.0±1.0): 5.0 ± 1.0 | Eosinophils, 6 h after (Wistar rat males; listed as Ex. 7): 1.5 ± 4% | Lymphocytes, 6 h after (Wistar rat males; listed as Ex. 7): 73 ± 6% | Number of leukocytes in 1 μl of blood, 6 h after (Wistar rat males; listed as Ex. 7): 7200 | Segmentated cells, 6 h after (Wistar rat males; listed as Ex. 7): 26 ± 3% | Eosinophils, before (Wistar rat males; listed as Ex. 7): 2 ± 1% | Lymphocytes, before (Wistar rat males; listed as Ex. 7): 75 ± 7% | Number of leukocytes in 1 μl of blood, before (Wistar rat males; listed as Ex. 7): 6000 | Segmentated cells, before (Wistar rat males; listed as Ex. 7): 23 ± 3% | patients of functional class I, day 30 [2]: 9 | patients of functional class II, day 30 [2]: 6 | patients of functional class III, day 30 [2]: 5 | patients of functional class IV, day 30 [2]: 0 | patients of functional class I, day 60 [2]: 13 | patients of functional class II, day 60 [2]: 5 | patients of functional class III, day 60 [2]: 2 | patients of functional class IV, day 60 [2]: 0 | patients of functional class I, day 90 [2]: 15 | patients of functional class II, day 90 [2]: 4 | patients of functional class III, day 90 [2]: 1 | patients of functional class IV, day 90 [2]: 0 | patients of functional class I, day 0 ([2]; 100 mg twice per day, 3 months): 8 | patients of functional class II, day 0 ([2]; 100 mg twice per day, 3 months): 7 | patients of functional class III, day 0 ([2]; 100 mg twice per day, 3 months): 5 | patients of functional class IV, day 0 ([2]; 100 mg twice per day, 3 months): 0 | died, 13 day (white rat females): 2 | died, 14 day (white rat females): 2 | Total died (white rat females): 4 | Number of micronuclei per 2000 cells (radioprotective properties) [3]: 11.5 ± 1.8

O=C(O)CCC(=O)O [Example 8, succinic acid]
Number of micronuclei per 2000 cells (genotoxicity) ([1]; norm 5.0±1.0): 5.0 ± 0.8 | Eosinophils, 6 h after (Wistar rat males; listed as Ex. 8): 1.5 ± 3% | Lymphocytes, 6 h after (Wistar rat males; listed as Ex. 8): 75 ± 4% | Number of leukocytes in 1 μl of blood, 6 h after (Wistar rat males; listed as Ex. 8): 7000 | Segmentated cells, 6 h after (Wistar rat males; listed as Ex. 8): 24 ± 2% | Eosinophils, before (Wistar rat males; listed as Ex. 8): 2 ± 6% | Lymphocytes, before (Wistar rat males; listed as Ex. 8): 77 ± 5% | Number of leukocytes in 1 μl of blood, before (Wistar rat males; listed as Ex. 8): 5900 | Segmentated cells, before (Wistar rat males; listed as Ex. 8): 21 ± 4% | patients of functional class I, day 30 [2]: 10 | patients of functional class II, day 30 [2]: 6 | patients of functional class III, day 30 [2]: 4 | patients of functional class IV, day 30 [2]: 0 | patients of functional class I, day 60 [2]: 11 | patients of functional class II, day 60 [2]: 6 | patients of functional class III, day 60 [2]: 3 | patients of functional class IV, day 60 [2]: 0 | patients of functional class I, day 90 [2]: 14 | patients of functional class II, day 90 [2]: 5 | patients of functional class III, day 90 [2]: 1 | patients of functional class IV, day 90 [2]: 0 | patients of functional class I, day 0 ([2]; 100 mg twice per day, 3 months): 8 | patients of functional class II, day 0 ([2]; 100 mg twice per day, 3 months): 7 | patients of functional class III, day 0 ([2]; 100 mg twice per day, 3 months): 5 | patients of functional class IV, day 0 ([2]; 100 mg twice per day, 3 months): 0 | died, 12 day (white rat females): 1 | died, 13 day (white rat females): 1 | died, 14 day (white rat females): 1 | Total died (white rat females): 3 | Number of micronuclei per 2000 cells (radioprotective properties) [3]: 12.0 ± 1.5

O=C(O)CCC(=O)O [Example 4, succinic acid]
Number of micronuclei per 2000 cells (genotoxicity) ([1]; norm 5.0±1.0): 5.5 ± 1.0 | Eosinophils, 6 h after (Wistar rat males; listed as Ex. 4): 1.5 ± 6% | Lymphocytes, 6 h after (Wistar rat males; listed as Ex. 4): 74 ± 8% | Number of leukocytes in 1 μl of blood, 6 h after (Wistar rat males; listed as Ex. 4): 7100 | Segmentated cells, 6 h after (Wistar rat males; listed as Ex. 4): 24 ± 3% | Eosinophils, before (Wistar rat males; listed as Ex. 4): 2 ± 4% | Lymphocytes, before (Wistar rat males; listed as Ex. 4): 77 ± 4% | Number of leukocytes in 1 μl of blood, before (Wistar rat males; listed as Ex. 4): 5900 | Segmentated cells, before (Wistar rat males; listed as Ex. 4): 21 ± 2% | patients of functional class I, day 30 [2]: 8 | patients of functional class II, day 30 [2]: 7 | patients of functional class III, day 30 [2]: 5 | patients of functional class IV, day 30 [2]: 0 | patients of functional class I, day 60 [2]: 9 | patients of functional class II, day 60 [2]: 9 | patients of functional class III, day 60 [2]: 3 | patients of functional class IV, day 60 [2]: 0 | patients of functional class I, day 90 [2]: 13 | patients of functional class II, day 90 [2]: 6 | patients of functional class III, day 90 [2]: 1 | patients of functional class IV, day 90 [2]: 0 | patients of functional class I, day 0 ([2]; 100 mg twice per day, 3 months): 8 | patients of functional class II, day 0 ([2]; 100 mg twice per day, 3 months): 7 | patients of functional class III, day 0 ([2]; 100 mg twice per day, 3 months): 5 | patients of functional class IV, day 0 ([2]; 100 mg twice per day, 3 months): 0 | died, 12 day (white rat females): 1 | died, 13 day (white rat females): 1 | died, 14 day (white rat females): 1 | Total died (white rat females): 3 | Number of micronuclei per 2000 cells (radioprotective properties) [3]: 12.5 ± 2.0

O=C(O)CCC(=O)O [“Natural” SA, succinic acid, reference compound]
Number of micronuclei per 2000 cells (genotoxicity) ([1]; norm 5.0±1.0, listed as “Natural acid”): 5.0 ± 1.0 | adaptogenic properties, conclusion in words (Wistar rat males; 6-hour immobilization stress, Wistar rats, listed as “natural” acid): evident adaptogens | Eosinophils, 6 h after (Wistar rat males): 1.5 ± 3% | Lymphocytes, 6 h after (Wistar rat males): 74 ± 4% | Number of leukocytes in 1 μl of blood, 6 h after (Wistar rat males): 7100 | Segmentated cells, 6 h after (Wistar rat males): 25 ± 3% | Eosinophils, before (Wistar rat males): 2 ± 4% | Lymphocytes, before (Wistar rat males): 75 ± 4% | Number of leukocytes in 1 μl of blood, before (Wistar rat males): 5900 | Segmentated cells, before (Wistar rat males): 23 ± 2% | patients of functional class I, day 30 [2]: 10 | patients of functional class II, day 30 [2]: 6 | patients of functional class III, day 30 [2]: 4 | patients of functional class IV, day 30 [2]: 0 | patients of functional class I, day 60 [2]: 9 | patients of functional class II, day 60 [2]: 8 | patients of functional class III, day 60 [2]: 3 | patients of functional class IV, day 60 [2]: 0 | patients of functional class I, day 90 [2]: 14 | patients of functional class II, day 90 [2]: 5 | patients of functional class III, day 90 [2]: 1 | patients of functional class IV, day 90 [2]: 0 | patients of functional class I, day 0 ([2]; 100 mg twice per day, 3 months): 8 | patients of functional class II, day 0 ([2]; 100 mg twice per day, 3 months): 7 | patients of functional class III, day 0 ([2]; 100 mg twice per day, 3 months): 4 | patients of functional class IV, day 0 ([2]; 100 mg twice per day, 3 months): 0 | cardiotonic properties / dynamics of functional class, conclusion in words ([2]; 100 mg twice per day, 3 months, listed as “natural” acid): high cardiotonic properties | died, 13 day (white rat females): 1 | died, 14 day (white rat females): 2 | Total died (white rat females): 3 | radioprotective effect, conclusion in words ([3]; gamma rays 1.3 Gy, 20 mg/kg body wt., 48 h, 20 mg/kg): evident radioprotectors | Number of micronuclei per 2000 cells (radioprotective properties) ([3]; listed as “Natural acid”): 12.0 ± 1.6
